Patent US10479777B2, “Herbicidal azines” (BASF SE, priority 2013, dated 2019)

What was measured:
Assay type in all cases: in vivo
Setaria viridis [1] = experiment: greenhouse test, pre-emergence treatment; details: 62.5 g/ha, scale from 0 to 100
Description: (§1) The culture containers used were plastic flowerpots containing loamy sand with approximately 3.0% of humus as the substrate. The seeds of the test plants were sown separately for each species.
(§2) For the pre-emergence treatment, the active ingredients, which had been suspended or emulsified in water, were applied directly after sowing by means of finely distributing nozzles. The containers were irrigated gently to promote germination and growth and subsequently covered with transparent plastic hoods until the plants had rooted. This cover caused uniform germination of the test plants, unless this had been impaired by the active ingredients. For the post-emergence treatment, the test plants were first grown to a height of 3 to 15 cm, depending on the plant habit, and only then treated with the active ingredients which had been suspended or emulsified in water. For this purpose, the test plants were either sown directly and grown in the same containers, or they were first grown separately as seedlings and transplanted into the test containers a few days prior to treatment.
(§3) Depending on the species, the plants were kept at 10-25° C. or 20-35° C., respectively. The test period extended over 2 to 4 weeks. During this time, the plants were tended, and their response to the individual treatments was evaluated.
(§4) Evaluation was carried out using a scale from 0 to 100. 100 means no emergence of the plants, or complete destruction of at least the aerial moieties, and 0 means no damage, or normal course of growth. A moderate herbicidal activity is given at values of at least 60, a good herbicidal activity is given at values of at least 70, and a very good herbicidal activity is given at values of at least 85.
(§5) The plants used in the greenhouse experiments were of the following species: […]

Echinocloa crus-galli = experiment: greenhouse test, pre-emergence treatment; details: 62.5 g/ha, scale from 0 to 100
Description: as §1, §2, §3, §4, §5

Polygonum convolvulus = experiment: greenhouse test, pre-emergence treatment; details: 62.5 g/ha, scale from 0 to 100
Description: as §1, §2, §3, §4, §5

Abutilon theophrasti = experiment: greenhouse test, post-emergence treatment; details: scale from 0 to 100
Description: as §1, §2, §3, §4, §5

Setaria viridis [2] = experiment: greenhouse test, post-emergence treatment; details: 2000 g/ha, scale from 0 to 100
Description: as §1, §2, §3, §4, §5

Amaranthus retroflexus = experiment: greenhouse test, post-emergence treatment; details: scale from 0 to 100
Description: as §1, §2, §3, §4, §5

Poa annua = experiment: greenhouse test, pre-emergence treatment; details: scale from 0 to 100
Description: as §1, §2, §3, §4, §5

Stellaria media = experiment: greenhouse test, pre-emergence treatment; details: scale from 0 to 100
Description: as §1, §2, §3, §4, §5

Setaria faberi = experiment: greenhouse test, post-emergence treatment; details: 500 g/ha, scale from 0 to 100
Description: as §1, §2, §3, §4, §5

Structure (SMILES): CC(C)(F)c1nc(N)nc(Nc2c(F)c(F)nc(F)c2F)n1 [Example 1, 6-(1-Fluoro-1-methyl-ethyl)-N4-(2,3,5,6-tetrafluoro-4-pyridyl)-1,3,5-triazine-2,4-diamine]
- herbicidal activity (Setaria viridis [1]): very good (a very good herbicidal activity is given at values of at least 85)
- herbicidal activity (Echinocloa crus-galli): very good (a very good herbicidal activity is given at values of at least 85)
- herbicidal activity (Polygonum convolvulus): very good (a very good herbicidal activity is given at values of at least 85)

Structure (SMILES): Cc1cccnc1Nc1nc(N)nc(C(F)(F)F)n1 [Example 34]
- herbicidal activity (Abutilon theophrasti; 2000 g/ha): very good (a very good herbicidal activity is given at values of at least 85)
- herbicidal activity (Setaria viridis [2]): very good (a very good herbicidal activity is given at values of at least 85)
- herbicidal activity (Amaranthus retroflexus; 2000 g/ha): very good (a very good herbicidal activity is given at values of at least 85)

Structure (SMILES): CC(C)(Cl)c1nc(N)nc(Nc2c(F)c(F)nc(F)c2F)n1 [Example 56]
- herbicidal activity (Poa annua; 125 g/ha): very good (a very good herbicidal activity is given at values of at least 85)
- herbicidal activity (Stellaria media; 125 g/ha): very good (a very good herbicidal activity is given at values of at least 85)

Structure (SMILES): Nc1nc(Nc2c(F)c(F)nc(F)c2F)nc(C2CCCCC2)n1 [Example 59]
- herbicidal activity (Poa annua; 250 g/ha): very good (a very good herbicidal activity is given at values of at least 85)
- herbicidal activity (Stellaria media; 250 g/ha): very good (a very good herbicidal activity is given at values of at least 85)

Structure (SMILES): CC(c1nc(N)nc(Nc2c(F)c(F)nc(F)c2F)n1)C1CC1 (stereo not shown) [Example 60]
- herbicidal activity (Abutilon theophrasti; 500 g/ha): very good (a very good herbicidal activity is given at values of at least 85)
- herbicidal activity (Setaria faberi): very good (a very good herbicidal activity is given at values of at least 85)
- herbicidal activity (Amaranthus retroflexus; 500 g/ha): very good (a very good herbicidal activity is given at values of at least 85)
